Measurements from PMC10192418, “High-affinity peptides developed against calprotectin and their application as synthetic ligands in diagnostic assays” (Nature Communications, 2023).
Read-outs that look alike come from different tables or passages of the source. Numbered stars: 1 amine (or outer) side, 2 acyl side, 3 side chain; on linkers, the order of the positions; unused ones are H or OH. Bridge positions count the residues as written; N and C are the ends. Peptide text beside a SMILES is read from it. * marks the point of attachment. 5FAM = O=C1OC2(c3ccc(O)cc3Oc3cc(O)ccc32)c2ccc(C(=O)*)cc21; Pyridine(2,6-diCH2) = c1cc(C[*:1])nc(C[*:2])c1

Molecular target: T1, calprotectin tetramer (recombinant B-RCAL, His6-linker-S100A9-linker-S100A8) (Homo sapiens, UniProt P05109)
T1 construct: we used the recombinant protein without removing the His-tag or cleaving the 8-amino acid linker between the two proteins; co-authors' company
T1 sequence (P05109 with tags, fused parts or gaps): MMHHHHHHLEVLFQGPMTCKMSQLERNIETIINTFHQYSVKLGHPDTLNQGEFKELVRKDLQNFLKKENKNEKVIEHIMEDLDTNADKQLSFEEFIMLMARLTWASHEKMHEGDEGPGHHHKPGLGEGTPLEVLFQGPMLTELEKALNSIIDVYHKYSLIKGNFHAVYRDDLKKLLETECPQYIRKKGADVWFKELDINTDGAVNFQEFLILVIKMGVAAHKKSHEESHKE
Assay: Fluorescence polarization (FP) binding to recombinant calprotectin B-RCAL tetramer in presence of CaCl2
Protocol: Calprotectin was serially diluted in 20 mM HEPES, 100 mM NaCl, 2 mM CaCl2, pH 7.5, and 1 mM DTT with 0.01% (v/v) Tween-20. Volumes of 16 μL of protein were added to 4 μL of fluorescent peptide (20 nM final concentration) in black 384-well microtiter plates. Fluorescence anisotropy was measured on a microwell plate reader (Infinite M200Pro, Tecan) with filters for excitation at 485 nm and emission at 535 nm. The dissociation constant (Kd) was calculated using a following Eq. (1) using Prism 5 software (GraphPad):1 A=Af+Ab−Af×LT+KD+PT−LT+KD+PT^2−4LTPT/2LT where A is anisotropy, Af and Ab are the anisotropy values for free and bound ligands, respectively. [L]T is the concentration of the total fluorescent ligand and [P]T the concentration of the protein.

[1] = FP, alanine scan of linear peptide 3, 20 nM peptide, 2 mM CaCl2, one measurement, NB = non-binding

Row | Compound | Kd [1] [µM] | other results
1 | CC(C)C[C@H](NC(=O)[C@@H]1CCCN1C(=O)[C@H](Cc1ccccc1)NC(=O)[C@H](C)NC(=O)[C@@H](NC(=O)[C@H](CO)NC(=O)[C@H](CCC(=O)O)NC(=O)[C@@H]1CCCN1C(=O)[C@H](CO)NC(=O)[C@H](CCCNC(=N)N)NC(=O)c1ccc2c(c1)C(=O)OC21c2ccc(O)cc2Oc2cc(O)ccc21)C(C)C)C(=O)N[C@@H](Cc1ccccc1)C(=O)N[C@@H](CCC(N)=O)C(=O)N[C@@H](CO)C(=O)N[C@@H](Cc1c[nH]cn1)C(=O)N[C@@H](Cc1c[nH]c2ccccc12)C(=O)N[C@@H](Cc1ccc(O)cc1)C(=O)N[C@@H](CO)C(=O)NCC(N)=O [Met10Leu mutant] (5FAM-RSPESVAFPLFQSHWYSG-NH2) | – | Kd (FP, linear peptide 3 with Met10 mutated to leucine, 20 nM peptide, 2 mM CaCl2): 0.0306 ± 0.0046 µM
2 | CSCC[C@H](NC(=O)[C@@H]1CCCN1C(=O)[C@H](Cc1ccccc1)NC(=O)CNC(=O)[C@@H](NC(=O)[C@H](CO)NC(=O)[C@H](CCC(=O)O)NC(=O)[C@@H]1CCCN1C(=O)[C@H](CO)NC(=O)[C@H](CCCNC(=N)N)NC(=O)c1ccc2c(c1)C(=O)OC21c2ccc(O)cc2Oc2cc(O)ccc21)C(C)C)C(=O)N[C@@H](Cc1ccccc1)C(=O)N[C@@H](CCC(N)=O)C(=O)N[C@@H](CO)C(=O)N[C@@H](Cc1c[nH]cn1)C(=O)N[C@@H](Cc1c[nH]c2ccccc12)C(=O)N[C@@H](Cc1ccc(O)cc1)C(=O)N[C@@H](CO)C(=O)NCC(N)=O [Peptide A7G] (5FAM-RSPESVGFPMFQSHWYSG-NH2) | 0.029 | –
3 | CSCC[C@H](NC(=O)[C@@H]1CCCN1C(=O)[C@H](Cc1ccccc1)NC(=O)[C@H](C)NC(=O)[C@@H](NC(=O)[C@H](CO)NC(=O)[C@H](CCC(=O)O)NC(=O)[C@@H]1CCCN1C(=O)[C@H](CO)NC(=O)[C@H](C)NC(=O)c1ccc2c(c1)C(=O)OC21c2ccc(O)cc2Oc2cc(O)ccc21)C(C)C)C(=O)N[C@@H](Cc1ccccc1)C(=O)N[C@@H](CCC(N)=O)C(=O)N[C@@H](CO)C(=O)N[C@@H](Cc1c[nH]cn1)C(=O)N[C@@H](Cc1c[nH]c2ccccc12)C(=O)N[C@@H](Cc1ccc(O)cc1)C(=O)N[C@@H](CO)C(=O)NCC(N)=O [Peptide R1A] (5FAM-ASPESVAFPMFQSHWYSG-NH2) | 0.032 | –
4 | CSCC[C@H](NC(=O)[C@@H]1CCCN1C(=O)[C@H](Cc1ccccc1)NC(=O)[C@H](C)NC(=O)[C@@H](NC(=O)[C@H](CO)NC(=O)[C@H](CCC(=O)O)NC(=O)[C@@H]1CCCN1C(=O)[C@H](CO)NC(=O)[C@H](CCCNC(=N)N)NC(=O)c1ccc2c(c1)C(=O)OC21c2ccc(O)cc2Oc2cc(O)ccc21)C(C)C)C(=O)N[C@@H](Cc1ccccc1)C(=O)N[C@@H](CCC(N)=O)C(=O)N[C@H]1CSCC(=O)CSC[C@@H](C(=O)NCC(N)=O)NC(=O)[C@H](Cc2ccc(O)cc2)NC(=O)[C@H](Cc2c[nH]c3ccccc23)NC(=O)[C@H](Cc2c[nH]cn2)NC1=O (single isomer, unassigned) [Peptide 3 Isomer 1b] | – | Kd: 0.0179 µM
5 | CSCC[C@H](NC(=O)[C@@H]1CCCN1C(=O)[C@H](Cc1ccccc1)NC(=O)[C@H](C)NC(=O)[C@@H](NC(=O)[C@H](CO)NC(=O)[C@H](CCC(=O)O)NC(=O)[C@@H]1CCCN1C(=O)[C@H](CO)NC(=O)[C@H](CCCNC(=N)N)NC(=O)c1ccc2c(c1)C(=O)OC21c2ccc(O)cc2Oc2cc(O)ccc21)C(C)C)C(=O)N[C@@H](Cc1ccccc1)C(=O)N[C@@H](CCC(N)=O)C(=O)N[C@@H](CO)C(=O)N[C@@H](Cc1c[nH]cn1)C(=O)N[C@@H](C)C(=O)N[C@@H](Cc1ccc(O)cc1)C(=O)N[C@@H](CO)C(=O)NCC(N)=O [Peptide W15A] (5FAM-RSPESVAFPMFQSHAYSG-NH2) | 0.024 | –
6 | CSCC[C@H](NC(=O)[C@@H]1CCCN1C(=O)[C@H](Cc1ccccc1)NC(=O)[C@H](C)NC(=O)[C@@H](NC(=O)[C@H](CO)NC(=O)[C@H](CCC(=O)O)NC(=O)[C@H](C)NC(=O)[C@H](CO)NC(=O)[C@H](CCCNC(=N)N)NC(=O)c1ccc2c(c1)C(=O)OC21c2ccc(O)cc2Oc2cc(O)ccc21)C(C)C)C(=O)N[C@@H](Cc1ccccc1)C(=O)N[C@@H](CCC(N)=O)C(=O)N[C@@H](CO)C(=O)N[C@@H](Cc1c[nH]cn1)C(=O)N[C@@H](Cc1c[nH]c2ccccc12)C(=O)N[C@@H](Cc1ccc(O)cc1)C(=O)N[C@@H](CO)C(=O)NCC(N)=O [Peptide P3A] (5FAM-RSAESVAFPMFQSHWYSG-NH2) | 0.028 | –
7 | CC[C@H](C)[C@@H]1NC(=O)[C@H](CO)NC(=O)[C@H](Cc2c[nH]c3ccccc23)NC(=O)[C@H](CCCNC(=N)N)NC(=O)[C@@H](NC(=O)[C@H](Cc2ccccc2)NC(=O)[C@@H]2CCCN2C(=O)c2ccc3c(c2)C(=O)OC32c3ccc(O)cc3Oc3cc(O)ccc32)CSCc2cccc(n2)CSC[C@@H](C(=O)N[C@@H](Cc2c[nH]cn2)C(N)=O)NC(=O)[C@H](CC(N)=O)NC(=O)[C@H](CC(=O)O)NC1=O [Peptide 9] (5FAM-PFCRWSIDNCH-NH2; linker 3-10 via Pyridine(2,6-diCH2)) | – | Kd (from fluorescence anisotropy titration, SI Figure 3): 29 µM
8 | CSCC[C@H](NC(=O)[C@H](C)NC(=O)[C@H](Cc1ccccc1)NC(=O)[C@H](C)NC(=O)[C@@H](NC(=O)[C@H](CO)NC(=O)[C@H](CCC(=O)O)NC(=O)[C@@H]1CCCN1C(=O)[C@H](CO)NC(=O)[C@H](CCCNC(=N)N)NC(=O)c1ccc2c(c1)C(=O)OC21c2ccc(O)cc2Oc2cc(O)ccc21)C(C)C)C(=O)N[C@@H](Cc1ccccc1)C(=O)N[C@@H](CCC(N)=O)C(=O)N[C@@H](CO)C(=O)N[C@@H](Cc1c[nH]cn1)C(=O)N[C@@H](Cc1c[nH]c2ccccc12)C(=O)N[C@@H](Cc1ccc(O)cc1)C(=O)N[C@@H](CO)C(=O)NCC(N)=O [Peptide P9A] (5FAM-RSPESVAFAMFQSHWYSG-NH2) | 0.03 | –
9 | CSCC[C@H](NC(=O)[C@@H]1CCCN1C(=O)[C@H](Cc1ccccc1)NC(=O)[C@H](C)NC(=O)[C@@H](NC(=O)[C@H](CO)NC(=O)[C@H](C)NC(=O)[C@@H]1CCCN1C(=O)[C@H](CO)NC(=O)[C@H](CCCNC(=N)N)NC(=O)c1ccc2c(c1)C(=O)OC21c2ccc(O)cc2Oc2cc(O)ccc21)C(C)C)C(=O)N[C@@H](Cc1ccccc1)C(=O)N[C@@H](CCC(N)=O)C(=O)N[C@@H](CO)C(=O)N[C@@H](Cc1c[nH]cn1)C(=O)N[C@@H](Cc1c[nH]c2ccccc12)C(=O)N[C@@H](Cc1ccc(O)cc1)C(=O)N[C@@H](CO)C(=O)NCC(N)=O [Peptide E4A] (5FAM-RSPASVAFPMFQSHWYSG-NH2) | 0.026 | –
10 | CSCC[C@@H]1NC(=O)[C@@H]2CCCN2C(=O)[C@H](Cc2ccccc2)NC(=O)[C@H](C)NC(=O)[C@H](C(C)C)NC(=O)[C@@H]2CSCC(=O)CSC[C@H](NC(=O)[C@H](CCC(N)=O)NC(=O)[C@H](Cc3ccccc3)NC1=O)C(=O)N[C@@H](Cc1c[nH]cn1)C(=O)N[C@@H](Cc1c[nH]c3ccccc13)C(=O)N[C@@H](Cc1ccc(O)cc1)C(=O)N[C@H](C(=O)NCC(N)=O)CSCC(=O)CSC[C@H](NC(=O)[C@H](CCCNC(=N)N)NC(=O)c1ccc3c(c1)C(=O)OC31c3ccc(O)cc3Oc3cc(O)ccc31)C(=O)N1CCC[C@H]1C(=O)N[C@@H](CCC(=O)O)C(=O)N2 (single isomer, unassigned) [Peptide 3 Isomer 3] | – | FP increase upon binding to calprotectin (FP, 2 mM CaCl2): 10–15%
11 | CSCC[C@H](NC(=O)[C@@H]1CCCN1C(=O)[C@H](Cc1ccccc1)NC(=O)[C@H](C)NC(=O)[C@H](C)NC(=O)[C@H](CO)NC(=O)[C@H](CCC(=O)O)NC(=O)[C@@H]1CCCN1C(=O)[C@H](CO)NC(=O)[C@H](CCCNC(=N)N)NC(=O)c1ccc2c(c1)C(=O)OC21c2ccc(O)cc2Oc2cc(O)ccc21)C(=O)N[C@@H](Cc1ccccc1)C(=O)N[C@@H](CCC(N)=O)C(=O)N[C@@H](CO)C(=O)N[C@@H](Cc1c[nH]cn1)C(=O)N[C@@H](Cc1c[nH]c2ccccc12)C(=O)N[C@@H](Cc1ccc(O)cc1)C(=O)N[C@@H](CO)C(=O)NCC(N)=O [Peptide V6A] (5FAM-RSPESAAFPMFQSHWYSG-NH2) | 0.039 | –
12 | CSCC[C@H](NC(=O)[C@@H]1CCCN1C(=O)[C@H](Cc1ccccc1)NC(=O)[C@H](C)NC(=O)[C@@H](NC(=O)[C@@H]1CSCC(=O)CSC[C@H](NC(=O)[C@H](CCCNC(=N)N)NC(=O)c2ccc3c(c2)C(=O)OC32c3ccc(O)cc3Oc3cc(O)ccc32)C(=O)N2CCC[C@H]2C(=O)N[C@@H](CCC(=O)O)C(=O)N1)C(C)C)C(=O)N[C@@H](Cc1ccccc1)C(=O)N[C@@H](CCC(N)=O)C(=O)N[C@@H](CO)C(=O)N[C@@H](Cc1c[nH]cn1)C(=O)N[C@@H](Cc1c[nH]c2ccccc12)C(=O)N[C@@H](Cc1ccc(O)cc1)C(=O)N[C@@H](CO)C(=O)NCC(N)=O (single isomer, unassigned) [Peptide 3 Isomer 1a] | – | Kd: 0.0169 µM
13 | CSCC[C@@H]1NC(=O)[C@@H]2CCCN2C(=O)[C@H](Cc2ccccc2)NC(=O)[C@H](C)NC(=O)[C@H](C(C)C)NC(=O)[C@@H]2CSCC(=O)CSC[C@@H](C(=O)NCC(N)=O)NC(=O)[C@H](Cc3ccc(O)cc3)NC(=O)[C@H](Cc3c[nH]c4ccccc34)NC(=O)[C@H](Cc3c[nH]cn3)NC(=O)[C@H](CSCC(=O)CSC[C@H](NC(=O)[C@H](CCCNC(=N)N)NC(=O)c3ccc4c(c3)C(=O)OC43c4ccc(O)cc4Oc4cc(O)ccc43)C(=O)N3CCC[C@H]3C(=O)N[C@@H](CCC(=O)O)C(=O)N2)NC(=O)[C@H](CCC(N)=O)NC(=O)[C@H](Cc2ccccc2)NC1=O (single isomer, unassigned) [Peptide 3 Isomer 2] | – | FP increase upon binding to calprotectin (FP, 2 mM CaCl2): 10–15%
